According to patent publication US12691114B2, “Compositions for inhibition of herpesviruses” (The Medical College of Wisconsin, Inc., priority 2020, dated 2026):

Key:
[1] = target: pp28-luciferase Towne HCMV; assay: Drug combination with GCV, pp28-luciferase Towne, Bliss model; format: cell-based, human cytomegalovirus; settings: combination experiment with GCV, pp28-luciferase; read-out: EC50 (μM) of Compound 2
Experimental: (§1) Drug combination and analysis: These experiments were performed as previously reported^40. The combination of GCV and each compound was tested using the pp28-luciferase. Briefly, 2×10^6 HFFs/plate were seeded in 96-well plates and infected with the pp28-luciferase Towne HCMV strain (MOI=1). First, a dose response curve was generated for each drug individually to determine its EC50. Then, drugs were combined at twice their EC50, diluted in DMEM with 4% FBS, followed by serial dilution and added together after infection. Luciferase activity of the combination and each drug individually was quantified at 72 hpi. The combination of letermovir and each of the new compounds was tested by the plaque assay using TB40. The same principle applied in this assay for the drug combination effect, and plaques were counted at 8 dpi. The Bliss model was used to calculate the effect of each drug combination on pp28-luciferase activity and plaque reduction. In this model, drug combination represents the product of two probabilistically independent events as described in the following equation^41.
[formula] Where D is the drug concentration, m is the slope, and EC50 is the effective concentration resulting in 50% virus inhibition. The combined effect of two inhibitors (Fu, fractional unaffected) is computed as the product of individual effects of the two inhibitors, Fu1 and Fu2. If the ratio of observed fold inhibition divided by the expected fold inhibition is greater than 1, the compounds are synergistic. If the ratio is less than 1, the combination is considered antagonistic, and if it equals to 1 the combination is additive.
(§2) Pattern of drug combination with GCV and letermovir: The effect of each compound alone or in combination with GCV or letermovir was tested in HCMV-infected HFFs. […] For letermovir and its combination with each of the five compounds the EC50 was determined based on plaque assay. […] All other combinations and Bliss coefficients were measured by pp28- luciferase.

non-infected HFFs = assay: in vitro
Experimental: (§3) Cytotoxicity assay: MTT assay was performed as described by manufacturer's instructions (Sigma-Aldrich). Non-infected cells were treated with compounds for 72 h or 10 days (same time points of the antiviral assay), and 20 μL/well of MTT [3-(4, 5-Dimethyl-2-thiazolyl)-2, 5-diphenyl-2H-tetrazolium bromide], 5 mg/mL in phosphate buffered saline (PBS)] was added to each well. After shaking at 150 rpm for 5 min the plates were incubated at 37° C. for 2-3 h. Conversion of yellow solution to dark blue formazan by mitochondrial dehydrogenases of living cells was quantified by measuring absorbance at 560 nm.
(§4) HCMV inhibition was measured by luciferase activity of pp28-recombinant Towne and pp28 GCV-resistant Towne strains of HCMV (72 hpi) and by plaque reduction using HCMV Towne or TB40 (10 days). Viral protein expression was measured by Western blot.

Epstein Barr Virus (EBV) = assay: Inhibition of lytic EBV replication in Akata cells, real-time PCR of BALF5; format: cell-based; settings: real-time PCR at 48 hours, NA = Not active
Experimental: Inhibition of lytic Epstein Barr Virus (EBV) replication: Akata cells (0.5×10^6/well of 24-well plate) latently infected with EBV were induced with 100 μg/ml of goat antihuman IgG (Sigma). Compounds and GCV control were added to triplicate wells immediately after the addition of human IgG. Cells were collected 48 hours after lytic induction for DNA quantification. Cellular DNA was purified using Wizard SV Genomic Kit (Promega, Madison, WI). The effect of the compounds on lytic induction of EBV was analyzed by real-time PCR of the EBV DNA polymerase gene, BALF5^38.
Inhibition of other herpesviruses: Inhibition of herpes simplex 1 and 2 (HSV1, HSV2), Epstein Barr virus (EBV) and mouse CMV (MCMV) was tested with the five compounds. Plaque reductions assays were used for HSV1, HSV2 and MCMV. Inhibition of lytic EBV replication was measured by real-time PCR in AKATA cells following IgG induction. Only MLS8554 was active against HSV1, HSV2 and MCMV (Table 2).

[2] = system: HCMV Towne viral proteins (IE1/2, pp65, UL84, UL44); assay: Immunoblot of viral protein expression in infected HFFs; format: cell-based, human cytomegalovirus; settings: HCMV Towne MOI of 1 PFU/cell, 72 hpi
Experimental: SDS-polyacrylamide gel electrophoresis and immunoblot analysis: Cell lysates containing equal amount of proteins were mixed with an equal volume of sample buffer (125 mM Tris-HCL, pH 6.8, 4% SDS, 20% glycerol and 5% β-mercaptoethanol) and boiled at 100° C. for 10 min. Denatured proteins were resolved in Tris-glycine polyacrylamide gels (8-10%) and transferred to polyvinylidine difluoride (PVDF) membranes (Bio-Rad Laboratories, Hercules, CA) by electroblotting. Membranes were incubated in blocking solution [5% w/v non-fat dry milk and 0.1% Tween-20 in PBS (PBST)] for 1 h, washed with PBST, and incubated with primary antibodies at 4° C. overnight. Membranes were washed with PBST and incubated with horseradish peroxidase-conjugated secondary antibodies in PBST for 1 h at room temperature. Following washing with PBST, protein bands were visualized by chemiluminescence using SuperSignal West Dura and Pico reagents (Pierce Chemical, Rockford, IL).
Antibodies: The following antibodies were used—Mouse monoclonal anti-HCMV IE1 & IE2 (MAB810, Millipore, Billerica, MA), mouse monoclonal anti-HCMV UL83 (pp65, Vector Laboratories Inc., Burlingame, CA), mouse monoclonal anti-HCMV UL44, mouse monoclonal anti-HCMV UL84, and mouse anti-β-actin anti-mouse IgG (Santa Cruz Biotechnology, Santa Cruz, CA). Horseradish peroxidase (HRP)-conjugated anti-mouse IgG was from GE Healthcare (Waukesha, WI). Horseradish peroxidase (RP)-conjugated anti-rabbit IgG was from Cell Signaling (Beverly, MA).

in vitro = settings: human
Experimental: as §3, §4

HCMV = assay: Drug combination of GCV and 2955 by plaque assay, Bliss model; format: cell-based, human cytomegalovirus; settings: Human betaherpesvirus 5; combination experiment with GCV, plaque assay; read-out: EC50 (μM) of Compound 2
Experimental: as §1, with “In this model, drug combination represents the product of two probabilistically independent events as described in the following equation^41.” left out
as §2

Nc1c(S(=O)(=O)c2cccs2)c2nc3ccccc3nc2n1Cc1ccccc1 [MLS8091]
EC50 [1]: 0.57 ± 0.07 µM
CC50 (non-infected HFFs): > 250 µM
EC50 (Epstein Barr Virus (EBV); IgG induction): > 10000 nM
viral protein expression by Western blot, in words [2]: Inhibition of all viral proteins

CCc1ccc(NC(=O)[C@H](Cc2c[nH]c3ccccc23)NC(=O)[C@@H]2Cc3ccccc3CN2)cc1 [MLS8554]
EC50 [1]: 0.55 ± 0.02 µM
CC50 (non-infected HFFs): 86 µM
viral protein expression by Western blot, in words [2]: reduced expression of IE2, UL44, UL84 and pp65

CC(C)NC(=O)C1CCN(C(=O)c2cc3sccc3n2Cc2ccc(Cl)cc2)CC1 [NCGC2955, 1-(4-(4-chlorobenzyl)-4H-thieno[3,2-b]pyrrole-5-carbonyl)-N-isopropylpiperidine-4-carboxamide]
CC50 (in vitro): > 200 µM
EC50 (HCMV): 1.51 ± 0.03 µM
viral protein expression by Western blot, in words [2]: strong reduction in viral protein expression including IE1 and IE2

CCN1CCN(CCCNC(=O)c2ccc3c(c2)sc2nc(-c4ccc(OC)cc4)cn23)CC1 [NFU1827, N-[3-(4-ethylpiperazin-1-yl)propyl]-4-(4-methoxyphenyl)-7-thia-2,5-diazatricyclo [6.4.0.02,6] dodeca-1(8),3,5,9,11-pentaene-10-carboxamide]
CC50 (in vitro): 70.9 µM
EC50 (Epstein Barr Virus (EBV); human gammaherpesvirus 4, IgG induction): 1920 ± 100 nM
viral protein expression by Western blot, in words [2]: reduced the level of both IE1 and IE2
